The text below walks through data of the NIST ThermoML archive (doi:10.1021/acs.jced.5b00011).

Numbers after ± are expanded uncertainties.

The conditions of this data set: Liquid, Ebulliometric method (Recirculating still).

As for `C1=CCCCC1` [cyclohexene], the “vapor or sublimation pressure” value (356.15 K) is on record as 101.33 ± 0.55 kPa.

Consider `CC(=O)N(C)C` [N,N-dimethylethanamide], for which, where the note is “439.25 K”, the “vapor or sublimation pressure” value amounted to 101.33 ± 0.58 kPa.

On to `C1CCCCC1` [cyclohexane], for which the “vapor or sublimation pressure” value (353.85 K) was 101.33 ± 0.55 kPa.

On to `c1ccccc1` [benzene], for which the “vapor or sublimation pressure” value (353.25 K) turned out to be 101.33 ± 0.55 kPa.

For orientation: vapor or sublimation pressure means the pressure of vapour in equilibrium with the condensed phase.
